Measurements from patent publication US9079858B2, “Rock kinase inhibitors” (Amakem NV, priority 2011, dated 2015).

Columns and labels:
[1] = Stability assay in rabbit aqueous humor; type: in vitro ADME; settings: 1 μM in rabbit aqueous humor; for half-life at 1 μM: read-out: t½ Rabbit AH
Method: (§1) Compounds are incubated at a concentration of 1 μM in rabbit aqueous humor (AH) or rabbit vitreous (VH). Samples are taken at fixed time points and the remnant of compound is determined by LC-MS/MS after protein precipitation.

[2] = Stability assay in rabbit vitreous humor; type: in vitro ADME; settings: 1 μM in rabbit vitreous; for half-life at 1 μM: rabbit vitreous humor, read-out: t½ Rabbit VH
Method: as §1

[3] = test system: human hepatocytes; assay: Stability assay in human hepatocytes; type: in vitro ADME; settings: 1 μM
Method: Compounds are incubated at a concentration of 1 μM with human hepatocytes (2 10^6 cells/ml in buffer solution). At fixed time points (ex: 1, 30, 60 & 120 minutes), an incubation mixture (200 μl) is cooled down on ice and 100 μl of acetonitrile is added. After vortex-mixing, the sample is centrifuged for 5 minutes at 16000 rpm. The remnant of compound in each sample is determined by LC-PDA-MS/MS analysis and half-life of the compound is subsequently calculated. Formation of the acid metabolite resulting from ester hydrolysis can be performed simultaneously. Peak areas for appearance of the acid are first recorded, and the corresponding concentrations are then back-calculated from calibration curve.
When evaluated under such conditions, compounds of the invention are rapidly degraded in the corresponding acid (primary metabolite).

[4] = Pharmacokinetics after intravenous and oral administration in mice; type: in vivo, male CD-1 mice
Method: The bioavailability of compound 1 was evaluated after intravenous and oral dosing in male CD-1 mice. The compound was dosed at 0.1 mg/kg intravenously and 1 mg/kg orally. Plasma levels were determined by LC-MS/MS and pharmacokinetic parameters were estimated by a non-compartmental model using WinNonlin v5.2.1 software.

## COC(=O)c1ccc(NC(=O)c2cccc(-c3cc(C(=O)Nc4ccncc4F)ccc3CN)c2)cc1F [Compound 3, methyl 4-({3-[2-(aminomethyl)-5-[(3-fluoropyridin-4-yl)carbamoyl]phenyl]phenyl}amido)-2-fluorobenzoate]
[1]
  t½ Rabbit AH: >1 h
[2]
  t½ Rabbit VH: >1 h

## CCCOC(=O)c1ccc(NC(=O)c2cccc(-c3cc(C(=O)Nc4ccncc4F)ccc3CN)c2)c(F)c1 [Compound 4, propyl 4-({3-[2-(aminomethyl)-5-[(3-fluoropyridin-4-yl)carbamoyl]phenyl]phenyl}amido)-3-fluorobenzoate]
[1]
  t½ Rabbit AH: >1 h
[2]
  t½ Rabbit VH: >1 h

## COCCOC(=O)c1ccc(NC(=O)c2cccc(-c3cc(C(=O)Nc4ccncc4F)ccc3CN)c2)cc1 [Compound 9, 2-methoxyethyl 4-({3-[2-(aminomethyl)-5-[(3-fluoropyridin-4-yl)carbamoyl]phenyl]phenyl}amido)benzoate]
[1]
  t½ Rabbit AH: >1 h
[2]
  t½ Rabbit VH: >1 h

## COC(=O)c1ccc(C(=O)Nc2cccc(-c3cc(C(=O)Nc4ccncc4F)ccc3CN)c2)nc1 [Compound 8, methyl 6-({3-[2-(aminomethyl)-5-[(3-fluoropyridin-4-yl)carbamoyl]phenyl]phenyl}carbamoyl)pyridine-3-carboxylate]
[1]
  half-life at 1 μM: > 1 h
[2]
  half-life at 1 μM: > 1 h

## CCCOC(=O)c1ccc(NC(=O)c2cccc(-c3cc(C(=O)Nc4ccncc4F)ccc3CN)c2)cc1C [Compound 6, propyl 4-({3-[2-(aminomethyl)-5-[(3-fluoropyridin-4-yl)carbamoyl]phenyl]phenyl}amido)-2-methylbenzoate]
[1]
  t½ Rabbit AH: >1 h
[2]
  t½ Rabbit VH: >1 h

## COC(=O)c1ccc(NC(=O)c2cccc(-c3cc(C(=O)Nc4ccncc4F)ccc3CN)c2)c(F)c1 [Compound 2, methyl 4-({3-[2-(aminomethyl)-5-[(3-fluoropyridin-4-yl)carbamoyl]phenyl]phenyl}amido)-3-fluorobenzoate]
[1]
  t½ Rabbit AH: >1 h
[2]
  t½ Rabbit VH: >1 h

## COC(=O)c1ccc(C(=O)Nc2cccc(-c3cc(C(=O)Nc4ccncc4F)ccc3CN)c2)cc1 [Compound 7, methyl 4-({3-[2-(aminomethyl)-5-[(3-fluoropyridin-4-yl)carbamoyl]phenyl]phenyl}carbamoyl)benzoate]
[1]
  half-life at 1 μM: > 1 h
[2]
  half-life at 1 μM: > 1 h

## COC(=O)c1ccc(NC(=O)c2cccc(-c3cc(C(=O)Nc4ccncc4F)ccc3CN)c2)cc1 [Compound 1, methyl 4-({3-[2-(aminomethyl)-5-[(3-fluoropyridin-4-yl)carbamoyl]phenyl]phenyl}amido)benzoate]
[3]
  t1/2 in human hepatocytes: 0.233 h
[3]; time 1 min
  % remaining: 100.0%
[3]; time 30 min
  % remaining: 16.0 +/− 0.4%
[3]; time 60 min
  % remaining: 4.8 +/− 0.1%
[3]; time 120 min
  % remaining: 2.4 +/− 1.3%
[1]
  t½ Rabbit AH: >1 h
[2]
  t½ Rabbit VH: >1 h
[4]; intravenous 0.1 mg/kg
  AUClast (intravenous exposure): 4.82 ± 0.276 ng·h/mL
  clearance: 257 mL/min/kg
  volume of distribution: 100 L/kg
[4]; intravenous 0.1 mg/kg, mouse plasma
  Cmax: 16.3 ng/mL
[4]; mice, intravenous and oral
  metabolism and excretion in words: rapidly metabolized and excreted from the body very rapidly
[4]; oral 1 mg/kg
  AUClast: 6.20 ± 5.50 ng·h/mL
  Cmax: 22.4 ± 22 ng/mL
[4]; oral 1 mg/kg vs intravenous 0.1 mg/kg
  percent oral bioavailability: 12.9%

## NCc1ccc(C(=O)Nc2ccncc2F)cc1-c1cccc(C(=O)Nc2ccc(C(=O)OCC3CCCO3)cc2)c1 (stereo not drawn) [Compound 10, oxolan-2-ylmethyl 4-({3-[2-(aminomethyl)-5-[(3-fluoropyridin-4-yl)carbamoyl]phenyl]phenyl}amido)benzoate]
[1]
  t½ Rabbit AH: >1 h
[2]
  t½ Rabbit VH: >1 h

## COC(=O)c1ccc(NC(=O)c2cccc(-c3cc(C(=O)Nc4ccncc4F)ccc3CN)c2)cc1C [Compound 5, methyl 4-({3-[2-(aminomethyl)-5-[(3-fluoropyridin-4-yl)carbamoyl]phenyl]phenyl}amido)-2-methylbenzoate]
[1]
  t½ Rabbit AH: >1 h
[2]
  t½ Rabbit VH: >1 h
